Patent US6933277B2, “Prevention of fetal alcohol syndrome and neuronal cell death with ADNF polypeptides” (The United States of America as represented by the …, priority 1999, dated 2005)
No end group written: not given here.

What was measured:
[1] = stated without test; cited from earlier work
[2] = system: model for FAS, C57B 1/6J mouse strain; experiment: Fetal demise at E18 in mouse model for FAS (alcohol on E8, peptide pretreatment); type: in vivo; details: for percentage of fetal demises: E18, pretreatment 30 min prior to alcohol (25% ethyl alcohol i.p., 0.030 ml/g) on E8, NAPVSIPQ 20 μg, SALLRSIPA 20 μg, VIP 1 μg, combination 20 μg+20 μg; for alcohol toxicity as measured by fetal demises and weight (summary): summary of fetal demises and weights (fetal and fetal brain) at E18
Experimental: (§1) C57-B16J female mice (Jackson Labs) were kept under a 12 h light, 12 h dark regimen with food and water available at all times. The mice received humane animal care in compliance with the “Guideline for Care and Use of Experimental Animals.” Six week old females (21-24 grams) were mated with C57-B 16J males for 4 h. The presence of a vaginal plug was considered day 0 pregnancy.
(§2) A published well-delineated model for FAS was followed (Webster, W. S., et al., Neurobehav Tox, 2:227-34 (1980)). Animals were injected (intraperitoneal) on E8 with […] in saline (v/v) or vehicle alone at 0.030 ml/g body weight. Pretreatment with VIP and ADNF peptides (NAPVSIPQ (SEQ ID NO:2), SALLRSIPA (SEQ ID NO:1), NAPVSIPQ (SEQ ID NO:2)+SALLRSIPA (SEQ ID NO:1)) were given 30 min prior to alcohol. Dosages of the neuropeptides were NAPVSIPQ (SEQ ID NO:2) (20 μg) and (40 μg), SALLRSIPA (SEQ ID NO:1) (20 μg), NAPVSIPQ (SEQ ID NO:2) (20 μg)+(20 μg); VIP (1 μg). A NAPVSIPQ (SEQ ID NO:2)+SALLRSIPA (SEQ ID NO:1) control group without alcohol was studied. NAPVSIPQ (SEQ ID NO:2) was diluted in 50 μl DMSO and diluted in filtered Dulbecco's phosphate buffered saline (DPBS). SAL was dissolved and diluted in filtered DPBS. VIP was dissolved in […] glacial acetic acid and diluted in HPLC water and DPBS. Since the animals receiving alcohol were incapacitated for approximately 6 h following injection, food and water were withheld from all groups for the initial 6 hours after injection, to allow accurate assessment of fetal weights.
(§3) At E18 (embryonic gestation day 18), the number of live and demised fetuses was determined. Fetal weights and fetal brain weights were obtained for each fetus in the litter. The mean fetal weights were determined for each mother and this was used for statistical analysis.
(§4) The mean litter pup and fetal brain weight was calculated, with the litter mean used for all statistical analysis. Percent demises were calculated by dividing the number of demises by the total number of fetuses (live plus demises). Statistical analysis included ANOVA for continuous variables, Mann-Whitney U for nonparametic data, Chi square for categorical variables or Fisher's exact test where appropriate [Statview 4.5 (Abacus Concepts, Inc., Berkeley, Calif.)] with p<0.05 considered significant. Results are presented as mean±standard error unless specified.
(§5) The C57B 1/6J mouse strain provided a well-characterized model for FAS. Previous work with this strain has defined the effects of dosage and embryonic timing on maternal serum alcohol levels and embryonic effects (Webster et al., Neurobehav Tox, 2:227-34 (1980)), incorporated herein by reference. Intra-peritoneal treatment allowed for defined and reproducible dosages. […] The mice were injected with 25% ethyl alcohol in saline (v/v) or vehicle alone at 0.030 ml/g maternal body weight at 0900 on E8. Pretreatment with the study peptides was given 30 minutes prior to alcohol administration. […]
To assess the protective effects of the ADNF peptides in the most severe form of stress, the number of fetal death was determined. […]

[3] = system: model for FAS, C57B 1/6J mouse strain; experiment: Fetal weights and fetal brain weights at E18 in mouse model for FAS; type: in vivo; details: pretreatment 30 min prior to alcohol on E8; for fetal weights (alcohol-induced growth restriction): NAPVSIPQ 20 μg, VIP 1 μg
Experimental: as §1, §2, §3, §4, §5
In the surviving E18 fetuses, fetal and fetal brain weights were evaluated to assess the protective effects of the ADNF peptides. […]

[4] = surviving E18 fetuses, SALLRSIPA 20 μg, combination 20 μg+20 μg

| Substance | crossing of the blood brain barrier [1] | percentage of fetal demises [2] | alcohol toxicity as measured by fetal demises and weight (summary) [2] | alcohol-induced growth restriction ([3]; double dosage of NAPVSIPQ (40 μg), E18) | fetal weights (alcohol-induced growth restriction) [3, 4] | fetal brain weights (alcohol-induced fetal brain weight reduction) [3, 4] |
| --- | --- | --- | --- | --- | --- | --- |
| NAPVSIPQ [Asn-Ala-Pro-Val-Ser-Ile-Pro-Gln] | cross the blood brain barrier | prevented the demises seen with alcohol | moderately prevented alcohol toxicity | moderately prevented the alcohol-induced growth restriction | moderately prevented the alcohol-induced growth restrictions |  |
| SALLRSIPA [Ser-Ala-Leu-Leu-Arg-Ser-Ile-Pro-Ala] | cross the blood brain barrier | unable to bring the fetal demise rate to control levels | moderately prevented alcohol toxicity |  | did not prevent the alcohol-induced fetal weight reduction | moderately prevented the alcohol-induced fetal brain weight reduction |
| vasoactive intestinal peptide (HSDAVFTDNYTRLRKQMAVKKYLNSILN; ends and bridges not checked; UniProt P01282 125-152, looked up) [VIP, neuropeptide that is a regulator of early postimplantation mouse embryonic growth, reference compound] |  | slightly improved the fetal demise rate |  |  | improved embryonic weights; however, the effect was intermediate |  |
